Consider 25 compounds from patent US20240067637A1, “NAPHTHYRIDINE AND PYRIDO[3,4-c]PYRIDAZINE DERIVATIVES AS GABAA ALPHA 5 RECEPTOR MODULATORS” (Richter Gedeon Nyrt., priority 2020, published 2024).

Structures are written as SMILES.

Sequence of human recombinant GABAA α5β3γ2 receptor (P31644 32-462): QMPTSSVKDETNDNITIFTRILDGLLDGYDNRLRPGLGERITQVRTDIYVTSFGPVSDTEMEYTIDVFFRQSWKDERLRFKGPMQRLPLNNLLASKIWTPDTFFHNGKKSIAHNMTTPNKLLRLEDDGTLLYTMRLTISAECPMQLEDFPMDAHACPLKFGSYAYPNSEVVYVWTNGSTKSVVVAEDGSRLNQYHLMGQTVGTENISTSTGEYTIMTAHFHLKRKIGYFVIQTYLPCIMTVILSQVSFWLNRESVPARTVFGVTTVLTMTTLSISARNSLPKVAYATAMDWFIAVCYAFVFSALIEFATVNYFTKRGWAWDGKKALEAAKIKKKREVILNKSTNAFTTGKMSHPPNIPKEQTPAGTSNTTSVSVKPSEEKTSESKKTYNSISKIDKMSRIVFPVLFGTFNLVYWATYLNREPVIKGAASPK
Sequence of human recombinant GABAA α5β3γ2 receptor (P28472 26-473 partner): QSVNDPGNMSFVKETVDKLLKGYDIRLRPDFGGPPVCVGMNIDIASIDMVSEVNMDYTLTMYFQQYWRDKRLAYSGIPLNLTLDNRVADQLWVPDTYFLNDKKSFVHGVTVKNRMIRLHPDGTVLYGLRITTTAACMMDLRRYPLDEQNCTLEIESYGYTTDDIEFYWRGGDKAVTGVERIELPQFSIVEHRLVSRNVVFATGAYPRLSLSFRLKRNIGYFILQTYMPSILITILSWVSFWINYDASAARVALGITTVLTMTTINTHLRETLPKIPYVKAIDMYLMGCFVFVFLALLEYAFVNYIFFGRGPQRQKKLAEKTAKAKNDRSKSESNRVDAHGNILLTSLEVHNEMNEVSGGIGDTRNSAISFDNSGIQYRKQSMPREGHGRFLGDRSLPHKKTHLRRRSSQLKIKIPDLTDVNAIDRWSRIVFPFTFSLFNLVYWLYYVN
Sequence of human recombinant GABAA α5β3γ2 receptor (P18507 40-475): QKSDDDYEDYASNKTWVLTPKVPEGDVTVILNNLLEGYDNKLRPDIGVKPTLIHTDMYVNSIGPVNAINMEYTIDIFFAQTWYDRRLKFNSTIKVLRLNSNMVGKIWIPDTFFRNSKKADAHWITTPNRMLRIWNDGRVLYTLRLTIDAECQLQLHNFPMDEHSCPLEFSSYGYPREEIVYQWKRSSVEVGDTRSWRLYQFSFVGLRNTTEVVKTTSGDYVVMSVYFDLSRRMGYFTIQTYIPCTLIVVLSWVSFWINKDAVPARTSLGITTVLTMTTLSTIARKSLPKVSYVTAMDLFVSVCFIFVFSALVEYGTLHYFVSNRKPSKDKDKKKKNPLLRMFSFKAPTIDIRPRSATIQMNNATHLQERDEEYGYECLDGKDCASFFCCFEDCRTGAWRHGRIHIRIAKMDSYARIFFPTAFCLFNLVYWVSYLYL

The assay has as its target human recombinant GABAA α5β3γ2 receptor (Homo sapiens (Human), UniProt P18507+P31644). Nature of the assay: Radioligand ([3H]Ro151788) receptor binding assay. Particulars: membranes of HEK cells expressing human recombinant GABAA α5β3γ2; 0.5 nM [3H]Ro151788; 60 minutes at 4° C.; read-out: hGABAA α5 Ki. As to the method: The GABAA α5β3γ2 protein used for the receptor binding assay was derived from membranes produced from HEK cells (Millipore CYL3073) expressing the human recombinant GABAA α5β3γ2 receptor. Cells were stored and cultured in-house according to the instructions provided by the vendor (Millipore). Cell pellet was homogenized in 10 times modified Krebs Henseleit buffer (membrane preparation buffer): 20 mM Tris, 120 mM NaCl, 100 mM KCl, 25 mM CaCl2 and 25 mM MgCl2 pH=7.4 at 4° C. using Ultra Turrax (Janke&Kunkel) maximal speed for 15 seconds. The homogenate was centrifuged at 40,000 g for 30 minutes at 4° C. Supernatant was discarded and the resulting pellet was washed in membrane preparation buffer. Pellet was resuspended in membrane preparation buffer and aliquots of 1.4 mL ampules were stored at −70° C. until use.
Receptor binding assays were performed in 96-well format in deep-well plates. For each 96-well plate one ampule of membrane homogenate was thawed and diluted in binding buffer (50 mM Tris pH=7.4, 100 mM KCl) and 200 μL was dispensed into each well. Radioligand [^3H]Ro151788 (Perkin Elmer: NET757250UC) was prepared in binding buffer and added to each well in 50 μL volume to give final concentration of 0.5 nM. Test compounds in suitable concentration(s) were added in additional 50 μL. The final assay volume was 300 μL. Incubation was carried out for 60 minutes at 4° C. For non-specific binding 10 μM unlabeled diazepam was used. After incubation samples were filtered over UniFilter® GF/BT using Filtermate Harvester (Perkin Elmer) and washed with 5×1 mL binding buffer. The plate was dried at 40° C. for an hour and 40 μL Microscint (Perkin Elmer) scintillation cocktail was added to each well. The plate was read in Microbeta (Perkin Elmer).
The specific radioligand binding (SB) was defined as the difference between total binding (Tot) and the non-specific binding (NSB). Results are expressed as a percent inhibition of specific binding obtained in the presence of compound of interest.
For IC50 and Ki determination a minimum of six drug concentrations in triplicate were used. IC50 values (i.e. concentration of compound giving 50% inhibition of specific binding) were calculated from concentration-displacement curves by sigmoidal fitting using Origin 7.5 software. Ki values (i.e. inhibition constants) were calculated using the Cheng-Prusoff equation Ki=IC50/[1+(L/KD)], where [L] is the radioligand concentration and KD the affinity of the labelled ligand for receptor. KD was determined from the Saturation analyses.
Consider `CC(=O)N1CCc2cc(OCc3c(-c4ccc(C)nc4)noc3C)ncc2C1` [Example 1, 1-[6-{[5-methyl-3-(6-methylpyridin-3-yl)-1,2-oxazol-4-yl]methoxy}-3,4-dihydro-2,7-naphthyridin-2(1H)-yl]ethanone], for which the Ki is 1.7 nM.

Take `Cc1ccc(-c2noc(C)c2COc2cc3c(cn2)CN(C(=O)OC(C)(C)C)CC3)cn1` [Example 2, tert-butyl 6-{[5-methyl-3-(6-methylpyridin-3-yl)-1,2-oxazol-4-yl]methoxyl}-1,2,3,4-tetrahydro-2,7-naphthyridine-2-carboxylate]: the inhibition constant (Ki) is 38 nM.

Take `CC(=O)N1CCc2cc(OCc3c(-c4ccc(C(F)(F)F)nc4)noc3C)ncc2C1` [Example 4, 1-[6-({5-methyl-3-[6-(trifluoromethyl)pyridin-3-yl]-1,2-oxazol-4-yl}methoxy)-3,4-dihydro-2,7-naphthyridin-2(1H)-yl]ethanone]: the inhibition constant (Ki) was 9.7 nM.

Take `Cc1ccc(-c2noc(C)c2COc2cc3c(cn2)CN(C(=O)CS(C)(=O)=O)CC3)cn1` [Example 5, 2-methanesulfonyl-1-(6-{[5-methyl-3-(6-methylpyridin-3-yl)-1,2-oxazol-4-yl]methoxy}-1,2,3,4-tetrahydro-2,7-naphthyridin-2-yl)ethan-1-one]: the inhibition constant (Ki) came out at 3.5 nM.

Turning to `Cc1ccc(-c2noc(C)c2COc2cc3c(cn2)CN(C(=O)c2cccnc2)CC3)cn1` [Example 7, 6-{[5-methyl-3-(6-methylpyridin-3-yl)-1,2-oxazol-4-yl]methoxy}-2-(pyridine-3-carbonyl)-1,2,3,4-tetrahydro-2,7-naphthyridine], the Ki worked out at 6 nM.

As to `Cc1ccc(-c2noc(C)c2COc2cc3c(cn2)CN(C(=O)C2CCS(=O)(=O)CC2)CC3)cn1` [Example 8, 4-(6-{[5-methyl-3-(6-methylpyridin-3-yl)-1,2-oxazol-4-yl]methoxy}-1,2,3,4-tetrahydro-2,7-naphthyridine-2-carbonyl)-1lambda6-thiane-1,1-dione], the Ki is 16 nM.

With `Cc1ccc(-c2noc(C)c2COc2cc3c(cn2)CN(C(=O)c2ccncc2)CC3)cn1` [Example 9, 6-{[5-methyl-3-(6-methylpyridin-3-yl)-1,2-oxazol-4-yl]methoxy}-2-(pyridine-4-carbonyl)-1,2,3,4-tetrahydro-2,7-naphthyridine], the Ki was found to be 10 nM.

As to `Cc1ccc(-c2noc(C)c2COc2cc3c(cn2)CN(C(=O)C2CCOCC2)CC3)cn1` [Example 10, 6-{[5-methyl-3-(6-methylpyridin-3-yl)-1,2-oxazol-4-yl]methoxy}-2-(oxane-4-carbonyl)-1,2,3,4-tetrahydro-2,7-naphthyridine], the Ki came to 17 nM.

On to `Cc1ccc(-c2noc(C)c2COc2cc3c(cn2)CN(C(=O)C2CCOC2)CC3)cn1` (stereo not shown) [Example 12, 6-{[5-methyl-3-(6-methylpyridin-3-yl)-1,2-oxazol-4-yl]methoxy}-2-(oxolane-3-carbonyl)-1,2,3,4-tetrahydro-2,7-naphthyridine], for which the Ki stood at 7.2 nM.

With `Cc1ccc(-c2noc(C)c2COc2cc3c(cn2)CN(C(=O)C2CC(=O)N(C)C2)CC3)cn1` (stereo not shown) [Example 15, 1-methyl-4-(6-{[5-methyl-3-(6-methylpyridin-3-yl)-1,2-oxazol-4-yl]methoxy}-1,2,3,4-tetrahydro-2,7-naphthyridine-2-carbonyl)pyrrolidin-2-one], the Ki turned out to be 8.3 nM.

On to `Cc1ccc(-c2noc(C)c2COc2cc3c(cn2)CN(C(=O)C2CC(=O)N(C(C)C)C2)CC3)cn1` (stereo not shown) [Example 16, 4-(6-{[5-methyl-3-(6-methylpyridin-3-yl)-1,2-oxazol-4-yl]methoxy}-1,2,3,4-tetrahydro-2,7-naphthyridine-2-carbonyl)-1-(propan-2-yl)pyrrolidin-2-one], for which the Ki amounted to 11 nM.

With `Cc1ccc(-c2noc(C)c2COc2cc3c(cn2)CN(C(=O)C2CCC(=O)N(C)C2)CC3)cn1` (stereo not shown) [Example 20, 1-methyl-5-(6-{[5-methyl-3-(6-methylpyridin-3-yl)-1,2-oxazol-4-yl]methoxy}-1,2,3,4-tetrahydro-2,7-naphthyridine-2-carbonyl)piperidin-2-one], the Ki was 9 nM.

As for `Cc1ccc(-c2noc(C)c2COc2cc3c(cn2)CN(C(=O)[C@H]2CCC(=O)N2C)CC3)cn1` [Example 21, (5R)-1-methyl-5-(6-{[5-methyl-3-(6-methylpyridin-3-yl)-1,2-oxazol-4-yl]methoxy}-1,2,3,4-tetrahydro-2,7-naphthyridine-2-carbonyl)pyrrolidin-2-one], the Ki was found to be 5.7 nM.

In the case of `Cc1ccc(-c2noc(C)c2COc2cc3c(cn2)CN(C(=O)[C@@H]2CCC(=O)N2C)CC3)cn1` [Example 22, (5S)-1-methyl-5-(6-{[5-methyl-3-(6-methylpyridin-3-yl)-1,2-oxazol-4-yl]methoxy}-1,2,3,4-tetrahydro-2,7-naphthyridine-2-carbonyl)pyrrolidin-2-one], the Ki came to 9.4 nM.

On to `CCN1CC(C(=O)N2CCc3cc(OCc4c(-c5ccc(C)nc5)noc4C)ncc3C2)CC1=O` (stereo not shown) [Example 23, 1-ethyl-4-(6-{[5-methyl-3-(6-methylpyridin-3-yl)-1,2-oxazol-4-yl]methoxy}-1,2,3,4-tetrahydro-2,7-naphthyridine-2-carbonyl)pyrrolidin-2-one], for which the Ki was found to be 6.9 nM.

On to `CC(=O)N1CCc2cc(OCc3c(-c4ccc(C)nc4)noc3C)nnc2C1` [Example 24, 1-(3-{[5-methyl-3-(6-methylpyridin-3-yl)-1,2-oxazol-4-yl]methoxy}-5H,6H,7H,8H-pyrido[3,4-c]pyridazin-7-yl)ethan-1-one], for which the inhibitory constant (Ki) came to 2.3 nM.

Take `Cc1ccc(-c2noc(C)c2COc2cc3c(nn2)CN(C(=O)N2CCOCC2)CC3)cn1` [Example 26, 4-(3-{[5-methyl-3-(6-methylpyridin-3-yl)-1,2-oxazol-4-yl]methoxy}-5H,6H,7H,8H-pyrido[3,4-c]pyridazine-7-carbonyl)morpholine]: the Ki amounted to 13 nM.

Turning to `Cc1ccc(-c2noc(C)c2COc2cc3c(nn2)CN(C(=O)C2CCOCC2)CC3)cn1` [Example 27, 2-methyl-5-[5-methyl-4-({[7-(oxane-4-carbonyl)-5H,6H,7H,8H-pyrido[3,4-c]pyridazin-3-yl]oxy}methyl)-1,2-oxazol-3-yl]pyridine], the Ki turned out to be 10 nM.

Consider `Cc1ccc(-c2noc(C)c2COc2cc3c(nn2)CN(C(=O)C2CC2)CC3)cn1` [Example 28, 5-{4-[({7-cyclopropanecarbonyl-5H,6H,7H,8H-pyrido[3,4-c]pyridazin-3-yl}oxy)methyl]-5-methyl-1,2-oxazol-3-yl}-2-methylpyridine], for which the inhibition constant Ki came to 4.4 nM.

For the compound `CCC(=O)N1CCc2cc(OCc3c(-c4ccc(C)nc4)noc3C)nnc2C1` [Example 29, 1-(3-{[5-methyl-3-(6-methylpyridin-3-yl)-1,2-oxazol-4-yl]methoxy}-5H,6H,7H,8H-pyrido[3,4-c]pyridazin-7-yl)propan-1-one], the inhibitory constant (Ki) worked out at 6 nM.

As to `Cc1ccc(-c2noc(C)c2COc2cc3c(nn2)CN(C(=O)CF)CC3)cn1` [Example 30, 2-fluoro-1-(3-{[5-methyl-3-(6-methylpyridin-3-yl)-1,2-oxazol-4-yl]methoxy}-5H,6H,7H,8H-pyrido[3,4-c]pyridazin-7-yl)ethan-1-one], the Ki stood at 1.9 nM.

`Cc1ccc(-c2noc(C)c2COc2cc3c(nn2)CN(C(=O)C(C)C)CC3)cn1` [Example 31, 2-methyl-1-(3-{[5-methyl-3-(6-methylpyridin-3-yl)-1,2-oxazol-4-yl]methoxy}-5H,6H,7H,8H-pyrido[3,4-c]pyridazin-7-yl)propan-1-one]: the Ki came to 4.3 nM.

With `Cc1ccc(-c2noc(C)c2COc2cc3c(nn2)CN(C(=O)NC2CC2)CC3)cn1` [Example 33, N-cyclopropyl-3-{[5-methyl-3-(6-methylpyridin-3-yl)-1,2-oxazol-4-yl]methoxy}-5H,6H,7H,8H-pyrido[3,4-c]pyridazine-7-carboxamide], the Ki stood at 2.2 nM.

In the case of `CC(=O)N1CCc2cc(OCc3c(-c4ccc(C(F)(F)F)nc4)noc3C)nnc2C1` [Example 34, 1-[3-({5-methyl-3-[6-(trifluoromethyl)pyridin-3-yl]-1,2-oxazol-4-yl}methoxy)-5H,6H,7H,8H-pyrido[3,4-c]pyridazin-7-yl]ethan-1-one], the Ki worked out at 8.1 nM.

For the compound `CC(=O)N1CCc2cc(OCc3c(C)nnn3-c3ccc(C)nc3)ncc2C1` [Example 37, 1-(6-{[4-methyl-1-(6-methylpyridin-3-yl)-1H-1,2,3-triazol-5-yl]methoxy}-1,2,3,4-tetrahydro-2,7-naphthyridin-2-yl)ethan-1-one], the Ki came out at 7.9 nM.
